Laboratory results as given in article PMC12392461, “Beyond Estrogenicity: A Comparative Assessment of Bisphenol A and Its Alternatives in In Vitro Assays Questions Safety of Replacements” (Environmental Science & Technology, 2025).

How the values were obtained:
Estrogen Receptor ERα [1] = target: T1, Estrogen Receptor ERα (Homo sapiens, UniProt P03372); experiment: cell-based; conditions: for EC10, ERα (M): 10% of maximum effect of E2; for EC10, linear transformed / EC10, linear / logEC10: Bioassay ERα, dosing range all; for EC10, linear transformed / EC10, linear / EC10: in M; for EC10, linear: linear model fit; for logEC10: log-logistic model fit; for SR-ScoreERα: SR-Score, sigma k=1, x=5; for Efficacy % / EC10 / REPBPA: This Study; for EC10: ERα; for REPBPA: relative estrogenic potency vs BPA; for Specificity ratio (SRbaseline) SRERα: against baseline cytotoxicity; for Specificity ratio (SRcytotoxicity) SRERα: against experimental cytotoxicity; for EC10, ERα: effect; for log(1/EC10) ERα: input of the ToxPi score, values up to 1.00; for Emax: read-out: Emax%ERα; for Relative effect potency REPERα: relative to BPA; for REPBPA,ERα (relative effect potency in relation to BPA): EC10,BPA/EC10,BPx
T1 sequence (P03372 311-547 limits assumed): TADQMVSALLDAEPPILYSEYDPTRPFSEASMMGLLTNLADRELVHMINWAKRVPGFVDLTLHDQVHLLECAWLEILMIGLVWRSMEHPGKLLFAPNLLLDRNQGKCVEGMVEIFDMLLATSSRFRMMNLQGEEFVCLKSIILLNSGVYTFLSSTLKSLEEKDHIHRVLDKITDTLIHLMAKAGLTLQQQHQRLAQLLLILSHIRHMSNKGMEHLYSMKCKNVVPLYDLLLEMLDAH
Method in brief: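 Reporter cells (ERα-UAS-bla GripTite; PPARγ-UAS-bla) grew 24 h at 37 °C, 5% CO₂ in medium containing 2% charcoal-stripped FBS. Cytotoxicity, tracked as IncuCyte confluency, capped data at IC10 for EC10 derivation. Emax% is the fitted log-logistic maximum expressed against the reference chemical's maximum.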

Estrogen Receptor ERα [2] = target: T1, Estrogen Receptor ERα; experiment: aCYP oxidation followed by ERα-UAS-bla GripTite assay (TK-Ratio of effect); type: cell-based; conditions: Table S10
Protocol: Cell culture conditions and bioassay protocols including response detection are provided in Text S2.1–2.4 and Table S3. − Cell viability was determined from cell confluency using an IncuCyte S3 Live-Cell Analysis System (Sartorius AG, Essen, Germany) before and after exposure, except for SH-SY5Y cells (live–dead staining with Nuclear Green LcS1 and propidium iodide, Abcam, UK). For metabolic activation experiments, cell viability was assessed using the ToxBLAzer DualScreen Kit (Thermo Fisher Scientific) to capture the remaining toxicity in ERα-UAS-bla GripTite after treatment with the aCYP catalyst (details in Text S2.4). […]
The TK-Ratio method was used to evaluate the impact of abiotic CYP oxidation on the potency of tested compounds. […]
For experiments with the preceding aCYP activation, ERα cell viability was additionally calculated from the readout of the ToxBLAzer reagent. The ToxBLAzer assay was conducted following the manufacturer's instructions (Thermo Fisher, Waltham, MA, U.S.).13 Fluorescence intensity was recorded at the start of the assay ( Fwavelength(0h)) and after a 2-hour incubation at […]
Cell viability was assessed based on the red fluorescence signal at 665 nm, applying eq. S11 for normalization.
Cell viability = F665nm(2h, sample)-F665nm(0h, average cell-free) (S11) F665nm(2h, average unexposed)-F665nm(0h, average cell-free) […]
the specific endpoint to avoid artifacts from cytotoxicity burst. 15
S2.5: Concentration-response curves (CRCs)
To avoid bias from cytotoxicity burst at higher concentrations, all concentrations exceeding the IC10 for cytotoxicity were excluded in the CRC modeling of effects but otherwise cytotoxicity and effects were fitted with the same model equations (response stands for cytotoxicity or effect). For ERα, AhR, ARE and PPARγ preferably a linear model was fitted to the linear portion of CRC up to maximum 30% effect (eq. S12),16 but in some cases it was necessary to choose a sigmoidal log-concentration-response model, specifically a log-logistic model (eq. S13), to derive effect concentrations and cytotoxicity. For mitochondrial toxicity and neurotoxicity, the […]
are not reporter gene assays. Common practice when using log-logistic models, e.g., the model implemented in tcpl package in R,17, 18 is that the minima and maxima are also fitted and only median effect concentrations AC50 are derived. […]
concentrations (EC10) for both linear and log-sigmoidal CRCs to allow absolute comparisons at the same effect level and for TR and SR -analysis. This was done using the AutomatedBioassayScreening19 published by Braun et al.,20 which also included an algorithm to choose the best model between eq. S12 and eq. S13.
Response (%) = slope × C (S12) […]
logEC =logEC − 1 ∙log (max−min − 100%) (S14)

[3] = Abiotic CYP (aCYP) oxidation, remaining parent compound (Cparent-Ratio); conditions: for % Loss: Table S9, loss of parent after aCYP oxidation; for Cparent-Ratio Mean: Table S9, mean of two replicate experiments; for Cparent-Ratio Rep.1 %: Table S9, replicate 1; for Cparent-Ratio Rep.1: Table S9, replicate 1, as fraction; for Cparent-Ratio Rep.2 %: Table S9, replicate 2; for Cparent-Ratio Rep.2: Table S9, replicate 2, as fraction

| SMILES | EC10, ERα (M) (Estrogen Receptor ERα [1]) | EC10, linear transformed (Estrogen Receptor ERα [1]) | EC10, linear (Estrogen Receptor ERα [1]) | logEC10 (Estrogen Receptor ERα [1]) | SR-ScoreERα (Estrogen Receptor ERα [1]) | Efficacy % (Estrogen Receptor ERα [1]) | EC10 (Estrogen Receptor ERα [1]) | REPBPA (Estrogen Receptor ERα [1]) | Specificity ratio (SRbaseline) SRERα (Estrogen Receptor ERα [1]) | Specificity ratio (SRcytotoxicity) SRERα (Estrogen Receptor ERα [1]) | EC10, ERα (Estrogen Receptor ERα [1]) | log(1/EC10) ERα (Estrogen Receptor ERα [1]) | Relative effect potency REPERα (Estrogen Receptor ERα [1]) | EC10, before oxidation (Estrogen Receptor ERα [2]; ERα, in M) | % Loss [3] | Cparent-Ratio Mean [3] | Cparent-Ratio Rep.1 % [3] | Cparent-Ratio Rep.1 [3] | Cparent-Ratio Rep.2 % [3] | Cparent-Ratio Rep.2 [3] | further results |
| --- | --- | --- | --- | --- | --- | --- | --- | --- | --- | --- | --- | --- | --- | --- | --- | --- | --- | --- | --- | --- | --- |
| O=C(OCc1ccccc1)c1ccc(O)cc1 [BzPB, Benzyl 4-hydroxybenzoate] | 3.02 × 10^–6 M | 3.07E-06 | 1.96E-06 | -5.52 | 1.00 | 53.46% | 3.02E-06 | 1.23E-01 | 5.49 | 13.93 | 3.02 µM | 0.70 | 0.12 | 3.07E-06 | -22% | 1.22 | 115.59% | 1.16 | 128.10% | 1.28 | Emax (Estrogen Receptor ERα [1]): 53%; EC10, after oxidation (Estrogen Receptor ERα [2]; ERα, after abiotic CYP catalyst, in M): 4.95E-06; TKERα (Estrogen Receptor ERα [2]; TKERα-Ratio): 0.6192 |
| CC(C)Oc1ccc(S(=O)(=O)c2ccc(O)cc2)cc1 [D8, 4-((4-Isopropoxyphenyl)sulfonyl)phenol] | 1.12 × 10^–5 M | 1.21E-05 | 1.41E-05 | -4.95 | 1.00 | 18.50% | 1.12E-05 | 3.29E-02 | 5.88 | 16.41 | 11.2 µM | 0.63 | 0.0329 | 1.21E-05 | -13% | 1.13 | 114.96% | 1.15 | 110.37% | 1.10 | REPBPA,ERα (relative effect potency in relation to BPA) (Estrogen Receptor ERα [1]): 0.033; Emax (Estrogen Receptor ERα [1]): 18% |
| CC1(C)[C@H](O)C(C)(C)[C@H]1O [t-TMCD, trans-2,2,4,4-Tetramethyl-1,3-cyclobutanediol] | 3.03 × 10^–3 M |  |  |  | 0.00922 | <20% | 3.03E-03 | 1.22E-04 | 0.32 |  | 3030 µM | 0.32 | 0.000122 | 3.18E-03 | 0.48% | 1.00 | 90.48% | 0.90 | 108.56% | 1.09 | REPBPA,ERα (relative effect potency in relation to BPA) (Estrogen Receptor ERα [1]): 1.2 × 10^–4 |
